Where two headings read alike, the source gives them in different places.
Assays:
hippocampal slice = test: Epileptic hippocampal slice, 0% Mg+2-induced epilepsy; type: cell-based, Sprague-Dawley albino rat; conditions: Rattus norvegicus, 30 μM Compound No. 6, 0% Mg+2
From the text: Hippocampal slices (450 μ) were obtained from male Sprague-Dawley albino rats (100-325 g). The method of slice preparation has been detailed elsewhere [A. H. Ganong et al., Brain Res., 273, 170-174 (1983)]. Slices were stored in a humidified interface chamber at room temperature and bathed in artificial cerebrospinal fluid (ACSF) which contained (in mM): NaCl 124.0, KCl 5.0, KH2 PO4 1.0, NaHCOP3 26.4, CaCl2, 2.0, MgSO4 1.5 and D-glucose 10.0, and was equilibrated with 95% 02:5% CO2. When needed for study, slices were placed one at a time in a small submersion chamber maintained at 35° C. where they were continuously perfused at 1.0-2.0 ml/min. Fresh solutions reached the recording chamber within 20 seconds and the perfusate was completely changed over within a minute. Additional oxygen and stirring was provided by an air jet (95% O2 :5% CO2) directed at the surface of the ACSF. Standard electrophysiological techniques were employed. Extracellular recording electrodes were glass micropipettes filled with 2.0 M NaCl and broken back to 2.0 m.OMEGA. resistance. All recording was from the somatic region of CA1. […] Intracellular recording electrodes of 60-100 MQ resistance were filled with 2.5 M KAc. […] The Schaffer collateral/commissural fibers were stimulated with tungsten bipolar stimulating electrodes at a rate of 0.03 Hz. The resulting field EPSP (S/C-CA1 EPSP) and the DC potential were amplified by an Axoprobe 1 amplifier and were continuously monitored on a Tektronix 5111A storage oscilloscope and a Gould 2300 chart recorder with a Gould Waveform storage module. Epileptiform activity was induced by omission of Mg++ ions from the perfusate, which removes the Mg++ mediated voltage-dependent block of the NMDA. receptor [B. Ault et al., J. Physiol., 307, 413-428 (1980)], or by the addition of the GABA antagonist picrotoxin. Drugs were added to the perfusate and zero magnesium refers to solutions which contain no added magnesium. The amplitude of the stimulus evoked primary population spike was used to assess the effects of experimental manipulations on the efficacy of synaptic function.

[1] = target: N-methyl-D-aspartate (NMDA) receptor site; test: Glutamate (NMDA) binding assay, L-[3H]glutamate, synaptic plasma membranes; conditions: L-[3H]glutamate 12.5 nM, pH 7.4, 0-4° C.; read-out: Ki apparent, NMDA
Procedure: The purpose of this assay is to determine the binding affinity of a compound of Formula I for the N-methyl-D-aspartate (NMDA) receptor site. This procedure was carried out as follows:
Synaptic plasma membranes (SPM) were prepared as previously described [Monahan, J. B. and Michel, J., "Identification and Characterization of an N-methyl-D-aspartate-specific L-[^3 H]glutamate Recognition Site in Synaptic Plasma Membranes, J. Neurochem., 48, 1699-1708 (1987)]. The SPM were stored at a concentration of 10-15 mg/ml in 0.32 M sucrose, 0.5 mM EDTA, 1 mM MgSO4, 5 mM Tris/SO4, pH 7.4, under liquid nitrogen. The identity and purity of the subcellular fractions were confirmed by both electron microscopy and marker enzymes. Protein concentrations were determined by using a modification of the method of Lowry [Ohnishi, S. T. and Barr, J. K., "A Simplified Method of Quantitating Proteins Using the Biuret and Phenol Reagents", Anal. Biochem., 86, 193-197 (1978)]. The SPM were thawed at room temperature, diluted twenty-fold with 50 mM Tris/acetate, pH 7.4, incubated at 37° C. for 30 minutes, and centrifuged at 100,000 g for 15 minutes. The dilution, incubation, and centrifugation was repeated a total of three times. This general method involved adding 12.5 nM of the L-[^3 H]glutamate radioligand to the appropriate concentration of the test compound and initiating the assay by the addition of ice cold SPM (0.2-0.45 mg). The binding assays were performed in 1.5 ml centrifuge tubes with the total volume adjusted to 1.0 ml. Additions of test compounds were made in 50 mM Tris/acetate, pH 7.4 and incubations were carried out at 0°-4° C. The incubation time for the NMDA binding assay was 10 minutes. To terminate the incubation, the samples were centrifuged for 15 minutes at 12,000 g and 4° C. in a Beckman Microfuge 12. The supernatant was aspirated and the pelleted membranes dissolved in Beckman Ready-Protein scintillation cocktail and the samples counted on a Beckman LS 5800 or 3801 liquid scintillation counter with automatic corrections for quenching and counting efficiency. Nonspecific binding was defined as the residual binding in the presence of 0.5 mM NMDA and was typically 15-25% of the total binding in the NMDA binding assay. Radioligand binding to the SPM was analyzed using Scatchard and Hill transformations and the Ki values of the compounds determined using logit-log transformations. Calculations and regression analysis were performed using templates developed for Lotus 1, 2, 3 as previously described [Pullan, L. M. "Automated Radioligand Receptor Binding Analysis with Templates for Lotus", Computer Appln. Biosci., 3 131 (1987)]. Binding results are reported in Table II for example compounds of the invention.

Cerebellar cGMP = test: Assay for effect on cGMP (cerebellum, intracisternal injection); type: in vivo, Swiss Hausche mice; conditions: ± SEM
Procedure: Male Swiss Hausche mice (25-30 g) were injected intracisternally (i.c.t.) with glycine agonists 10 minutes prior to sacrifice by focussed microwave irradiation. Compounds of the invention were injected intracisternally 2 minutes prior to the agonist. For intracisternal injections, al agonists were dissolved in HCl and diluted with isotonic saline prior to adjustment of the pH to between 6 and 7 with NaOH. The compounds of the invention were dissolved in isotonic saline and all compounds were administered in a volume of 5 μl.
Hydrochloric acid in extracts of the cerebellum were freeze-dried for assay of cGMP with a commercial RIA kit (NEN). Protein determinations (Lowery) and statistics (Dunett's t-test) were performed as described previously [P. L. Wcod et al., Neurochem., 19, 975-982 (1980)]. Groups consisted of 7-10 mice.

Work on `O=C(O)Cc1c(C(=O)O)[nH]c2cc(Cl)ccc12` [Compound No. 6, 2-carboxy-6-chloro-3-indoleacetic acid] yielded an activity at 30 µM (hippocampal slice; read-out: Burst duration) of 60%, an activity at 30 µM (hippocampal slice; read-out: Primary population spike amplitude) of 97% and an activity at 30 µM (hippocampal slice; read-out: Spontaneous activity) of 48%. The activity at 30 µM (hippocampal slice; read-out: Sum of additional population spike amplitude) was 70.1%, the Ki [1] was greater than 100 µM and the “Cerebellar cGMP” value (Cerebellar cGMP; Compound No. 6 (5 μg) alone) was 3.5 ± 0.55 pmol/mg protein. The “Cerebellar cGMP” value (Cerebellar cGMP; D-Serine (100 μg) + Compound No. 6 (5 μg)) was 5.8 ± 0.96 pmol/mg protein.
